We go through 22 compounds from patent publication US12685726B2, “Sulfoximines as inhibitors of NaV1.8” (Gruenenthal GmbH, priority 2022, dated 2026).

Each structure is given as a SMILES string. A value given as a limit tells only on which side of the number the result lay.

In the experiment the target is T1, human NaV 1.8 (Homo sapiens, UniProt Q9Y5Y9).
T1 construct: expressed in transfected cells; host or cells: HEK (recombinant cell line)
Nature of the experiment: Automated whole-cell patch clamp (Qube384) voltage-clamp recordings of sodium currents in HEK-NaV1.8 cell line. It counts as cell-based. The note with it: read-out: Potency category (human NaV 1.8 IC50). The method, boiled down: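 HEK cells expressing NaV1.8 with b3, whole-cell automated voltage clamp at room temperature or 19° C.; CsF-based internal, pH 7.4 external. State-dependent (−120 mV, V1/2 4 s, −10 mV test pulses) and 10/20 Hz 40-pulse protocols; ~12 min compound, vehicle-corrected, IC50 by 4-parameter logistic fit.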
On the technique in general: In patch-clamp work, channel activity is measured electrically.

T1 sequence (Q9Y5Y9 whole entry): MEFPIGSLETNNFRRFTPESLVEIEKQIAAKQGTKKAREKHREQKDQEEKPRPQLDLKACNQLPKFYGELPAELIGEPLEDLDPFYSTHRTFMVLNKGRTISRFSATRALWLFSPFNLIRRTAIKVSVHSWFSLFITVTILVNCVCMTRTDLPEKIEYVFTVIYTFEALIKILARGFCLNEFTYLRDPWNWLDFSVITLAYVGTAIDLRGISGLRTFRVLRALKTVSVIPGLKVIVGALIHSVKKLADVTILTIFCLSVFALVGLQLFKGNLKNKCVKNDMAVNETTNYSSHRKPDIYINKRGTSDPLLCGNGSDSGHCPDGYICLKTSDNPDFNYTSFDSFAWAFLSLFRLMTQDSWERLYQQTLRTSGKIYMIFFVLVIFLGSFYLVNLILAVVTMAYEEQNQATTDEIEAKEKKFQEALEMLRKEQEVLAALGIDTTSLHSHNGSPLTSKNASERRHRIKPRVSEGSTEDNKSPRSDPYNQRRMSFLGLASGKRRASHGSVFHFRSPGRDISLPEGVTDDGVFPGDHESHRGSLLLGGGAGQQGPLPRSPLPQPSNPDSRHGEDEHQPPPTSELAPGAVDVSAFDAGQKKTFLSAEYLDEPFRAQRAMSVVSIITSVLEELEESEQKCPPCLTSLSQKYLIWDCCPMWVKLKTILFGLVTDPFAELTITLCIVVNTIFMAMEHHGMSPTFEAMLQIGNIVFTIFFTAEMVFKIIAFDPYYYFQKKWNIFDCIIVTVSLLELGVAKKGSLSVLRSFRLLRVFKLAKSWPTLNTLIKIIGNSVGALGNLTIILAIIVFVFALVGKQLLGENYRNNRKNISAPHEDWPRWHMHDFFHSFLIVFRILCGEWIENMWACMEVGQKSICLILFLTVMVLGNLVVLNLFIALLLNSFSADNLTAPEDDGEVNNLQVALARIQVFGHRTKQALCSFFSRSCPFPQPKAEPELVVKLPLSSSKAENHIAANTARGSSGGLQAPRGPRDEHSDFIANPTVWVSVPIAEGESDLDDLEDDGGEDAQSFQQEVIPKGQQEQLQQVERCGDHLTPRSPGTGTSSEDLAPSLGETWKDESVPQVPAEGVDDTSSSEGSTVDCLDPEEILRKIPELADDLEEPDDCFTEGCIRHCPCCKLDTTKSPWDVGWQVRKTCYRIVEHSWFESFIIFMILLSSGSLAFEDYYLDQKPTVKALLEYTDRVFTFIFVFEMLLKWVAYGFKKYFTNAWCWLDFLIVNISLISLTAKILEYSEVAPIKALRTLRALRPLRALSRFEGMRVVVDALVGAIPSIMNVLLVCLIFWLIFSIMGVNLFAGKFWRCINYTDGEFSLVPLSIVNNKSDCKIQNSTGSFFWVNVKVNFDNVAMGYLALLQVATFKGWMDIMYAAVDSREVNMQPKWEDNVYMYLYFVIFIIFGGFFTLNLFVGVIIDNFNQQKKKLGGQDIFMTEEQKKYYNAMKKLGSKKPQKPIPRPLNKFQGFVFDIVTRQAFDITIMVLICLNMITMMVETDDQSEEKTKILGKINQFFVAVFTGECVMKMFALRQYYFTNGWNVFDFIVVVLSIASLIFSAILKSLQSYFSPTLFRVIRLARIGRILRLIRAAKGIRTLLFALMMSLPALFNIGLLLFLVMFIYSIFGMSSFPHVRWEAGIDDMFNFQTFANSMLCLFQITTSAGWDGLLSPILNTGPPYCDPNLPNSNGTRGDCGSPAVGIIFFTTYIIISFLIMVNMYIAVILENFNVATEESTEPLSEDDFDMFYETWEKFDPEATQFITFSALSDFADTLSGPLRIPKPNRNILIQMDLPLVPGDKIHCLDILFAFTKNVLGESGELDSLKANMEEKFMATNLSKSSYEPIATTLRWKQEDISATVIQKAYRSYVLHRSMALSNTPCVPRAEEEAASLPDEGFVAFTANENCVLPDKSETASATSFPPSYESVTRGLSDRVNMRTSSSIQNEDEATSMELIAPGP

Regarding `CC1(Cn2nc(C3(F)CC3)c(C(F)(F)F)c2C(=O)Nc2ccnc(S(C)(=N)=O)c2)CC(F)(F)C1` (single isomer, unassigned) [Example 70a, 1-((3,3-Difluoro-1-methylcyclobutyl)methyl)-3-(1-fluorocyclopropyl)-N-(2-(S-methylsulfonimidoyl)pyridin-4-yl)-4-(trifluoromethyl)-1H-pyrazole-5-carboxamide], the IC50 – broadly, the concentration at which inhibition is half-maximal – is not above 100 nM.
With `CC1(Cn2nc(C3(F)CC3)c(C(F)(F)F)c2C(=O)Nc2ccnc(S(C)(=N)=O)c2)CC(F)(F)C1` (single isomer, unassigned) [Example 70b, 1-((3,3-Difluoro-1-methylcyclobutyl)methyl)-3-(1-fluorocyclopropyl)-N-(2-(S-methylsulfonimidoyl)pyridin-4-yl)-4-(trifluoromethyl)-1H-pyrazole-5-carboxamide], the IC50 was not above 100 nM.
As for `COC1(c2nn(CC3(C)CC(F)(F)C3)c(C(=O)Nc3ccnc(S(C)(=N)=O)c3)c2C(F)(F)F)CC1` (single isomer, unassigned) [Example 71a, 1-((3,3-difluoro-1-methylcyclobutyl)methyl)-3-(1-methoxycyclopropyl)-N-(2-(S-methylsulfonimidoyl)pyridin-4-yl)-4-(trifluoromethyl)-1H-pyrazole-5-carboxamide], the figure is 100 to 1000 nM.
As for `COC1(c2nn(CC3(C)CC(F)(F)C3)c(C(=O)Nc3ccnc(S(C)(=N)=O)c3)c2C(F)(F)F)CC1` (single isomer, unassigned) [Example 71b, 1-((3,3-difluoro-1-methylcyclobutyl)methyl)-3-(1-methoxycyclopropyl)-N-(2-(S-methylsulfonimidoyl)pyridin-4-yl)-4-(trifluoromethyl)-1H-pyrazole-5-carboxamide], the IC50 was not above 100 nM.
Under `CC1(Cn2nc(C(C)(F)F)c(C(F)(F)F)c2C(=O)Nc2ccnc(S(C)(=N)=O)c2)CC(F)(F)C1` (single isomer, unassigned) [Example 75a, 1-((3,3-difluoro-1-methylcyclobutyl)methyl)-3-(1,1-difluoroethyl)-N-(2-(S-methylsulfonimidoyl)pyridin-4-yl)-4-(trifluoromethyl)-1H-pyrazole-5-carboxamide] stands not above 100 nM; under `CC1(Cn2nc(C(C)(F)F)c(C(F)(F)F)c2C(=O)Nc2ccnc(S(C)(=N)=O)c2)CC(F)(F)C1` (single isomer, unassigned) [Example 75b, 1-((3,3-difluoro-1-methylcyclobutyl)methyl)-3-(1,1-difluoroethyl)-N-(2-(S-methylsulfonimidoyl)pyridin-4-yl)-4-(trifluoromethyl)-1H-pyrazole-5-carboxamide], not above 100 nM; under `C[S@@](=N)(=O)c1cc(NC(=O)c2c(C(F)(F)F)c(C3CC3)nn2C[C@@H]2CC23CC3)ccn1` (single isomer, unassigned) [Example 78a, 3-cyclopropyl-N-(2-(S-methylsulfonimidoyl)pyridin-4-yl)-1-(spiro[2.2]pentan-1-ylmethyl)-4-(trifluoromethyl)-1H-pyrazole-5-carboxamide], not above 100 nM.
For the compound `C[S@](=N)(=O)c1cc(NC(=O)c2c(C(F)(F)F)c(C3CC3)nn2C[C@@H]2CC23CC3)ccn1` (single isomer, unassigned) [Example 78b, 3-cyclopropyl-N-(2-(S-methylsulfonimidoyl)pyridin-4-yl)-1-(spiro[2.2]pentan-1-ylmethyl)-4-(trifluoromethyl)-1H-pyrazole-5-carboxamide], the IC50 is not above 100 nM.
For `C[S@@](=N)(=O)c1cc(NC(=O)c2c(C(F)(F)F)c(C3CC3)nn2C[C@H]2CC23CC3)ccn1` (single isomer, unassigned) [Example 78c, 3-cyclopropyl-N-(2-(S-methylsulfonimidoyl)pyridin-4-yl)-1-(spiro[2.2]pentan-1-ylmethyl)-4-(trifluoromethyl)-1H-pyrazole-5-carboxamide], the IC50 was not above 100 nM.
Under `C[S@](=N)(=O)c1cc(NC(=O)c2c(C(F)(F)F)c(C3CC3)nn2C[C@H]2CC23CC3)ccn1` (single isomer, unassigned) [Example 78d, 3-cyclopropyl-N-(2-(S-methylsulfonimidoyl)pyridin-4-yl)-1-(spiro[2.2]pentan-1-ylmethyl)-4-(trifluoromethyl)-1H-pyrazole-5-carboxamide] stands not above 100 nM.
As for `C[S@@](=N)(=O)c1cc(NC(=O)c2c(C(F)(F)F)c(C3CC3)nn2C[C@H]2C(F)(F)C23CC3)ccn1` (single isomer, unassigned) [Example 79a, 3-cyclopropyl-1-((2,2-difluorospiro[2.2]pentan-1-yl)methyl)-N-(2-(S-methylsulfonimidoyl)pyridin-4-yl)-4-(trifluoromethyl)-1H-pyrazole-5-carboxamide], the figure is not above 100 nM; as for `C[S@](=N)(=O)c1cc(NC(=O)c2c(C(F)(F)F)c(C3CC3)nn2C[C@H]2C(F)(F)C23CC3)ccn1` (single isomer, unassigned) [Example 79b, 3-cyclopropyl-1-((2,2-difluorospiro[2.2]pentan-1-yl)methyl)-N-(2-(S-methylsulfonimidoyl)pyridin-4-yl)-4-(trifluoromethyl)-1H-pyrazole-5-carboxamide], not above 100 nM; as for `C[S@@](=N)(=O)c1cc(NC(=O)c2c(C(F)(F)F)c(C3CC3)nn2C[C@@H]2C(F)(F)C23CC3)ccn1` (single isomer, unassigned) [Example 79c, 3-cyclopropyl-1-((2,2-difluorospiro[2.2]pentan-1-yl)methyl)-N-(2-(S-methylsulfonimidoyl)pyridin-4-yl)-4-(trifluoromethyl)-1H-pyrazole-5-carboxamide], not above 100 nM.
As for `C[S@](=N)(=O)c1cc(NC(=O)c2c(C(F)(F)F)c(C3CC3)nn2C[C@@H]2C(F)(F)C23CC3)ccn1` (single isomer, unassigned) [Example 79d, 3-cyclopropyl-1-((2,2-difluorospiro[2.2]pentan-1-yl)methyl)-N-(2-(S-methylsulfonimidoyl)pyridin-4-yl)-4-(trifluoromethyl)-1H-pyrazole-5-carboxamide], the figure is not above 100 nM.
Take `CS(=N)(=O)c1cc(NC(=O)c2c(C(F)(F)F)c(C3CC3)nn2CC2C3(CC3)C23CC3)ccn1` (single isomer, unassigned) [Example 80a, 3-cyclopropyl-1-(dispiro[2.0.24.13]heptan-7-ylmethyl)-N-(2-(S-methylsulfonimidoyl)pyridin-4-yl)-4-(trifluoromethyl)-1H-pyrazole-5-carboxamide]: the IC50 is not above 100 nM.
With `CS(=N)(=O)c1cc(NC(=O)c2c(C(F)(F)F)c(C3CC3)nn2CC2C3(CC3)C23CC3)ccn1` (single isomer, unassigned) [Example 80b, 3-cyclopropyl-1-(dispiro[2.0.24.13]heptan-7-ylmethyl)-N-(2-(S-methylsulfonimidoyl)pyridin-4-yl)-4-(trifluoromethyl)-1H-pyrazole-5-carboxamide], the IC50 is not above 100 nM.
Under `C[S@@](=N)(=O)c1cc(NC(=O)c2c(C(F)(F)F)c(C3CC3)nn2C[C@]2(C)C[C@H](C(F)(F)F)C2)ccn1` (single isomer, unassigned) [Example 86a, 3-cyclopropyl-1-(((trans)-1-methyl-3-(trifluoromethyl)cyclobutyl)methyl)-N-(2-(S-methylsulfonimidoyl)pyridin-4-yl)-4-(trifluoromethyl)-1H-pyrazole-5-carboxamide] stands not above 100 nM; under `C[S@](=N)(=O)c1cc(NC(=O)c2c(C(F)(F)F)c(C3CC3)nn2C[C@]2(C)C[C@H](C(F)(F)F)C2)ccn1` (single isomer, unassigned) [Example 86b, 3-cyclopropyl-1-(((trans)-1-methyl-3-(trifluoromethyl)cyclobutyl)methyl)-N-(2-(S-methylsulfonimidoyl)pyridin-4-yl)-4-(trifluoromethyl)-1H-pyrazole-5-carboxamide], not above 100 nM.
Under `C[S@@](=N)(=O)c1cc(NC(=O)c2c(C(F)(F)F)c(C3CC3)nn2C[C@]2(C)C[C@@H](C(F)(F)F)C2)ccn1` (single isomer, unassigned) [Example 86c, 3-cyclopropyl-1-(((cis)-1-methyl-3-(trifluoromethyl)cyclobutyl)methyl)-N-(2-(S-methylsulfonimidoyl)pyridin-4-yl)-4-(trifluoromethyl)-1H-pyrazole-5-carboxamide] stands not above 100 nM; under `C[S@](=N)(=O)c1cc(NC(=O)c2c(C(F)(F)F)c(C3CC3)nn2C[C@]2(C)C[C@@H](C(F)(F)F)C2)ccn1` (single isomer, unassigned) [Example 86d, 3-cyclopropyl-1-(((cis)-1-methyl-3-(trifluoromethyl)cyclobutyl)methyl)-N-(2-(S-methylsulfonimidoyl)pyridin-4-yl)-4-(trifluoromethyl)-1H-pyrazole-5-carboxamide], not above 100 nM; under `C[C@]1(Cn2nc(C3CC3)c(C(F)(F)F)c2C(=O)Nc2ccnc([S@](C)(=N)=O)c2)CC(F)(F)C12CC2` (single isomer, unassigned) [Example 92a, 3-cyclopropyl-1-((6,6-difluoro-4-methylspiro[2.3]hexan-4-yl)methyl)-N-(2-(S-methylsulfonimidoyl)pyridin-4-yl)-4-(trifluoromethyl)-1H-pyrazole-5-carboxamide], not above 100 nM.
Regarding `C[C@]1(Cn2nc(C3CC3)c(C(F)(F)F)c2C(=O)Nc2ccnc([S@@](C)(=N)=O)c2)CC(F)(F)C12CC2` (single isomer, unassigned) [Example 92b, 3-cyclopropyl-1-((6,6-difluoro-4-methylspiro[2.3]hexan-4-yl)methyl)-N-(2-(S-methylsulfonimidoyl)pyridin-4-yl)-4-(trifluoromethyl)-1H-pyrazole-5-carboxamide], the IC50 is not above 100 nM.
